In patent publication US10851108B2, “Substituted bicyclic heterocyclic compounds” (BRISTOL-MYERS SQUIBB COMPANY, priority 2016, dated 2020):

Biological target: hROMK (human Kir1.1) (Homo sapiens (Human), UniProt P48048)
Assay: Thallium Flux Assay
Type: cell-based
Settings: CHO T-Rex hROMK stable cell line, 10-point concentration response; read-out: hROMK Th+ Flux IC50
Procedure: Solutions and reagents: Thallium flux assay was performed using FluxOR kit (F10017, Life Technologies). Loading buffer, assay buffer and stimulus buffer were prepared using kit components. HBSS (Hank's balanced salt solution, Cat #14025-092) was purchased separately from Life Technologies.
To prepare 10 ml of loading buffer: 10 μl of FluxOR dye (reconstituted in DMSO) was first added to 100 μl of powerload concentrate and this mix along with 100 μl of Probenicid (100×) was then added to 9.79 ml of HBSS. Assay buffer (10 ml) was prepared by addition of 2 ml of FluxOR chloride free buffer (5×), 100 μl of Probenicid (100×), and 0.2 ml of Ouabain (13.77 mM) to 7.7 ml of deionized water. Stimulus buffer was composed of 15 mM Tl2SO4, 0.75 mM K2SO4 in FluxOR chloride free buffer (diluted to 1× using deionized water). The final concentration of Tl2SO4 and K2SO4 in the assay plate was 3 mM and 0.15 mM, respectively.
Plating and induction of cells: The CHO T-Rex hROMK (human Kir1.1) stable cell line was maintained in Ham's F12 media supplemented with 10% FBS, 1% Penicillin-Streptomycin, 500 μg/ml Zeocin and 10 μg/ml Blasticidin at 37° C. in a 5% CO2 incubator. One day before the experiment, the cells were dissociated by incubation with Versene solution (15040-066, Life Technologies) for 10 minutes at 37° C. followed by addition of growth media. The cell suspension was centrifuged at 1200 rpm for 5 min. After discarding the supernatant, the cells were resuspended in fresh growth media and cell concentration was determined using a hemocytometer. Next, 0.5 μg/ml of Doxycycline was added to the cell suspension to induce hROMK channel expression and 50 μl (10,000 cells/well) of cell suspension was added to each well of a poly-D lysine coated 384 well black, optically clear bottom plate (6007718, Perkin Elmer). The assay plate was kept at 37° C. in a 5% CO2 incubator.
Assay protocol: On the day of experiment, media was removed and loading buffer was added (30 μl/well) to the assay plate. The cells were incubated in the loading buffer for 30 minutes at 37° C. The loading buffer was then replaced by assay buffer (30 μl/well) followed by addition of test compounds or controls. The cells were incubated with compounds for 30 minutes and the plate was then mounted on FlexStation (Molecular Devices) for fluorescence read out with excitation and emission wavelengths at 488 and 525 nm, respectively. Each well was read for 90 sec at 2 sec interval and the stimulus buffer was added after 20 seconds of baseline recording. The final DMSO concentration was either 0.5 or 1% in the assay plate. […] controls were defined by addition of DMSO or 3 μM of a standard ROMK inhibitor, respectively, to the wells instead of a test compound.
A 10-point concentration response curve was used to estimate the IC50 value of test compounds.
The data in Table 3 is reported with two significant figures.

hROMK (human Kir1.1), sequence (P48048 whole entry): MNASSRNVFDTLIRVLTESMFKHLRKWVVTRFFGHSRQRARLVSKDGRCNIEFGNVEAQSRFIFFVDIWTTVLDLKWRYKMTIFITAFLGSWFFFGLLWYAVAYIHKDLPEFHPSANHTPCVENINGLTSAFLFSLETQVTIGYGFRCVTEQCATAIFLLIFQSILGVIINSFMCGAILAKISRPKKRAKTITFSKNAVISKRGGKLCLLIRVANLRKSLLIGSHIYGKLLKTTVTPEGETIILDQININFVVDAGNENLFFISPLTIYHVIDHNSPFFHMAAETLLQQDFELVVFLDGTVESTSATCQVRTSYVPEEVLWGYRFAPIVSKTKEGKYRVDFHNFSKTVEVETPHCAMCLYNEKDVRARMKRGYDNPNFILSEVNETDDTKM

Row | SMILES | IC50 [nM]
1 | Cc1c(CN2CCc3nc(Nc4ccc5c(c4C)COC5=O)ncc3C2)ccc2c1COC2=O [Example 5, 4-methyl-5-((2-((4-methyl-1-oxo-1,3-dihydroisobenzofuran-5-yl)amino)-7,8-dihydropyrido[4,3-d]pyrimidin-6(5H)-yl)methyl)isobenzofuran-1(3H)-one] | 790
2 | N#Cc1ccc(Nc2ccc3c(c2)CCN(CCc2ccc4c(c2)COC4=O)C3)cc1F [Example 6, 2-fluoro-4-((2-(2-(1-oxo-1,3-dihydroisobenzofuran-5-yl)ethyl)-1,2,3,4-tetrahydroisoquinolin-6-yl)amino)benzonitrile] | 120
3 | N#Cc1ccc(Nc2ccc3c(n2)CCN(CCc2ccc4c(c2)COC4=O)C3)cc1F [Example 7, 2-fluoro-4-((6-(2-(1-oxo-1,3-dihydroisobenzofuran-5-yl)ethyl)-5,6,7,8-tetrahydro-1,6-naphthyridin-2-yl)amino)benzonitrile] | 200
4 | Cc1c(N2CCc3cc(NCc4ccc(C#N)c(F)c4)ccc3C2)ccc2c1COC2=O [Example 10, 2-fluoro-4-(((2-(4-methyl-1-oxo-1,3-dihydroisobenzofuran-5-yl)-1,2,3,4-tetrahydroisoquinolin-6-yl)amino)methyl)benzonitrile] | 4600
5 | N#Cc1ccc2c(cnn2-c2ncc3c(n2)CCN(Cc2ccc4c(c2)COC4=O)C3)c1 [Example 11, 1-(6-((1-oxo-1,3-dihydroisobenzofuran-5-yl)methyl)-5,6,7,8-tetrahydropyrido[4,3-d]pyrimidin-2-yl)-1H-indazole-5-carbonitrile] | 1200
6 | Cc1c(CN2CCc3nc(-n4ncc5cc(C#N)ccc54)ncc3C2)ccc2c1COC2=O [Example 13, 1-(6-((4-methyl-1-oxo-1,3-dihydro-isobenzofuran-5-yl)methyl)-5,6,7,8-tetrahydropyrido[4,3-d]pyrimidin-2-yl)-1H-indazole-5-carbonitrile] | 750
7 | Cc1c(CN2CCc3cc(Nc4ccc5oc(=O)n(C)c5c4)ccc3C2)ccc2c1COC2=O [Example 14, 3-methyl-5-((2-((4-methyl-1-oxo-1,3-dihydroisobenzofuran-5-yl)methyl)-1,2,3,4-tetrahydroisoquinolin-6-yl)amino)benzo[d]oxazol-2(3H)-one] | 320
8 | O=C1OCc2cc(CN3CCc4cc(Nc5ccc6c(c5)COC6=O)ccc4C3)ccc21 [Example 15, 5-((6-((1-oxo-1,3-dihydroisobenzofuran-5-yl)amino)-3,4-dihydroisoquinolin-2(1H)-yl)methyl)isobenzofuran-1(3H)-one] | 21
9 | Cc1c(CN2CCc3nc(-n4ccc5c(C#N)cccc54)ncc3C2)ccc2c1COC2=O [Example 20, 1-(6-((4-methyl-1-oxo-1,3-dihydro-isobenzofuran-5-yl)methyl)-5,6,7,8-tetrahydropyrido[4,3-d]pyrimidin-2-yl)-1H-indole-4-carbonitrile] | 1500
10 | Cc1c(CN2CCc3nc(-n4ccc5cc(C#N)ccc54)ncc3C2)ccc2c1COC2=O [Example 21, 1-(6-((4-methyl-1-oxo-1,3-dihydro-isobenzofuran-5-yl)methyl)-5,6,7,8-tetrahydropyrido[4,3-d]pyrimidin-2-yl)-1H-indole-5-carbonitrile] | 3200
11 | Cc1c(CN2CCc3nc(-n4cc(C#N)c5ccccc54)ncc3C2)ccc2c1COC2=O [Example 23, 1-(6-((4-methyl-1-oxo-1,3-dihydro-isobenzofuran-5-yl)methyl)-5,6,7,8-tetrahydropyrido[4,3-d]pyrimidin-2-yl)-1H-indole-3-carbonitrile] | 1100
12 | Cc1c(CN2CCc3cc(-n4ccc5c(C#N)cccc54)ccc3C2)ccc2c1COC2=O [Example 24, 1-(2-((4-methyl-1-oxo-1,3-dihydro-isobenzofuran-5-yl)methyl)-1,2,3,4-tetrahydroisoquinolin-6-yl)-1H-indole-4-carbonitrile] | 820
13 | Cc1c(CN2CCc3nc(Nc4ccc(C#N)c(F)c4)ncc3C2)ccc2c1COC2=O [Example 26, 2-fluoro-4-((6-((4-methyl-1-oxo-1,3-dihydroisobenzofuran-5-yl)methyl)-5,6,7,8-tetrahydropyrido[4,3-d]pyrimidin-2-yl)amino) benzonitrile] | 270
14 | Cc1c(CCN2CCc3nc(Nc4ccc(C#N)c(F)c4)ncc3C2)ccc2c1COC2=O [Example 27, 2-fluoro-4-((6-(2-(4-methyl-1-oxo-1,3-dihydroisobenzofuran-5-yl)ethyl)-5,6,7,8-tetrahydropyrido[4,3-d]pyrimidin-2-yl)amino) benzonitrile] | 200
15 | Cc1c(CN2CCc3cc(Nc4ccc(C#N)c(F)c4)ccc3C2)ccc2c1COC2=O [Example 30, 2-fluoro-4-((2-((4-methyl-1-oxo-1,3-dihydroisobenzofuran-5-yl)methyl)-1,2,3,4-tetrahydroisoquinolin-6-yl)amino)benzonitrile] | 810
16 | Cc1cc(Nc2ncc3c(n2)CCN(Cc2ccc4c(c2C)COC4=O)C3)ncc1C#N [Example 31, 4-methyl-6-((6-((4-methyl-1-oxo-1,3-dihydroisobenzofuran-5-yl)methyl)-5,6,7,8-tetrahydropyrido[4,3-d]pyrimidin-2-yl)amino) nicotinonitrile] | 1500
17 | Cc1cc(Nc2ccc3c(c2)CCN(Cc2ccc4c(c2)COC4=O)C3)ncc1C#N [Example 34, 4-methyl-6-((2-((1-oxo-1,3-dihydro-isobenzofuran-5-yl)methyl)-1,2,3,4-tetrahydroisoquinolin-6-yl)amino) nicotinonitrile] | 300
18 | Cc1c(CN2CCc3cc(Nc4ncc(C#N)cn4)ccc3C2)ccc2c1COC2=O [Example 37, 2-((2-((4-methyl-1-oxo-1,3-dihydro-isobenzofuran-5-yl)methyl)-1,2,3,4-tetrahydroisoquinolin-6-yl)amino) pyrimidine-5-carbonitrile] | 4900
19 | Cc1c(CN2CCc3cc(Nc4ccn5nccc5n4)ccc3C2)ccc2c1COC2=O [Example 38, 4-methyl-5-((6-(pyrazolo[1,5-a]pyrimidin-5-ylamino)-3,4-dihydroisoquinolin-2(1H)-yl)methyl)isobenzofuran-1(3H)-one] | 1900
20 | Cc1c(CN2CCc3cc(Nc4cccc(F)c4C#N)ccc3C2)ccc2c1COC2=O [Example 39, 2-fluoro-6-((2-((4-methyl-1-oxo-1,3-dihydroisobenzofuran-5-yl)methyl)-1,2,3,4-tetrahydroisoquinolin-6-yl)amino)benzonitrile] | 550
21 | Cc1c(CN2CCc3nc(-n4cnc5c(C#N)cccc54)ncc3C2)ccc2c1COC2=O [Example 40, 1-(6-((4-methyl-1-oxo-1,3-dihydro-isobenzofuran-5-yl)methyl)-5,6,7,8-tetrahydropyrido[4,3-d]pyrimidin-2-yl)-1H-benzo[d]imidazole-4-carbonitrile] | 3400
22 | N#Cc1cnc2c(ccn2-c2ncc3c(n2)CCN(Cc2ccc4c(c2)COC4=O)C3)c1 [Example 46, 1-(6-((1-oxo-1,3-dihydroisobenzofuran-5-yl)methyl)-5,6,7,8-tetrahydropyrido[4,3-d]pyrimidin-2-yl)-1H-pyrrolo[2,3-b] pyridine-5-carbonitrile] | 1500
23 | Cc1c(CN2CCc3nc(N(C)c4ccc(C#N)c(F)c4)ncc3C2)ccc2c1COC2=O [Example 47, 2-fluoro-4-(methyl(6-((4-methyl-1-oxo-1,3-dihydroisobenzofuran-5-yl)methyl)-5,6,7,8-tetrahydropyrido[4,3-d]pyrimidin-2-yl)amino) benzonitrile] | 1900
24 | Cn1c(=O)oc2ccc(CN3CCc4cc(Nc5ccc(C#N)c(F)c5)ccc4C3)cc21 [Example 48, 2-fluoro-4-((2-((3-methyl-2-oxo-2,3-dihydrobenzo[d]oxazol-5-yl)methyl)-1,2,3,4-tetrahydroisoquinolin-6-yl)amino)benzonitrile] | 600
25 | Cc1c(CN2CCc3nc(Nc4ccc5oc(=O)n(C)c5c4)ncc3C2)ccc2c1COC2=O [Example 49, 3-methyl-5-((6-((4-methyl-1-oxo-1,3-dihydroisobenzofuran-5-yl)methyl)-5,6,7,8-tetrahydropyrido[4,3-d]pyrimidin-2-yl)amino) benzo[d]oxazol-2(3H)-one] | 1800
